In series [1] the test system is lysis of the fibrin clot in hemophilia-A plasma. In words: Coagulation-Lysis test in turbidimetry with intrinsic activators instead of FXIa. The class given is biochemical, human. The note with it: all FVIII concentrations tested, 48 nM GEG, 290 nM silica, TF 0.5 pM. The procedure:
The intrinsic activators in Stago reagents are ethylene glycol gallate at 23 mg/L (STA-Cephascreen) and silica at 20 g/L (STA-PTT analyzer).
As was done for the implementation of a viscoelastic method, turbidimetry tests were performed with a hemophilia-A patient from each group, overloaded with 0, 2, 20, 100% of Factor VIII (FVIII-Advate®). The coagulation reaction was initiated with ethylene glycol gallate (GEG) from 48 to 190 nM final test or with silica from 145 to 580 nM final test, without modifying the concentration of tissue factor which was kept at 0.5 pM final test for the two activators. These activators were added independently into the reagent under the same reference conditions as FXIa.
The aim is to determine the maximum difference in tolerance observed in parameters DOD t1, DOD t2, and TL, between FXIa and the intrinsic activators.

The test system is the same in series [2]. In words: Coagulation-Lysis test (turbidimetric, DOD t1 750 sec / t2 1400 sec) on hemophilia-A plasmas. The class given is biochemical, human. The procedure:
Dynamic measurement of the formation and degradation of the fibrin clot is carried out on a set of samples. The test, called the “Coagulation-Lysis” test, is a turbidimetric, automated, encompassing test for measuring the formation and lysis of the fibrin clot. For the analysis, the invention takes advantage of only the “lysis” part of the fibrin clot formation and lysis curve. The test is performed by mixing the plasma sample, undiluted, with an intermediate reagent containing a very low concentration of tissue factor (TF), phospholipids (PPL), plasminogen activator (tPA), and activator of the intrinsic pathway, preferably factor XIa (FXIa). After incubating the mixture, the calcium reagent triggers the generation of thrombin and the formation of the fibrin clot which quickly begins to be degraded by the tPA (tissue plasminogen activator).
According to one embodiment, TF (tissue factor), PPL (phospholipids), FXIa, and tPA (tissue plasminogen activator) are mixed at the following concentrations: 0.5 pM, 4 μM, 100 PM and 0.13 μg/mL final test.
The undiluted plasma sample, preferably 200 μL, is mixed with the intermediate reagent, preferably 50 μL.
Next is a step of incubating the mixture at 37° C. then adding the calcium ion-based triggering reagent to the mixture (FIG. 1), preferably 50 μL in 102 mM final reagent (17 mM final test), to initiate the thrombin generation and fibrin clot formation (FIG. 1).
Then, the change in optical density is read (FIG. 1) dynamically (every 2 seconds) at a single wavelength between 350 and 800 nm, preferably at 540 nm and preferably for a duration of 1986 seconds (33 minutes).
In the context of this experimental section, the parameters or steps which were specifically used or carried out to obtain the presented results are as follows: • a. TF (tissue factor) and PPL (phospholipids) are mixed with an activator of the intrinsic pathway, FXIa, and tPA (tissue plasminogen activator), at the following concentrations: 0.5 pM, 4 μM, 100 pM, and 0.13 μg/mL final test. • b. The mixture is incubated at 37° C. then the calcium ion-based triggering reagent is added to the mixture, 50 μL in 102 mM final reagent (17 mM final test), to initiate formation of the fibrin clot. • c. The change in optical density is read dynamically (every 2 seconds) at a single wavelength, at 540 nm and for a duration of 1986 seconds (33 minutes). • d. The database is composed of all the deltas of the optical density (DOD) at the different measurement times and for each of the method parameters (Tmax; T09D—90% of the max DOD; TL—50% of the max DOD—max DOD is a measure of optical density). • e. […] This database is used as a training database which is trained on at least 70% of the overloaded samples selected randomly, and as a test database for the remaining overloaded samples (30%), then as a validation database for the patient samples.
The classification group is determined using the two DOD (delta optical density) parameters. For the turbidimetric method used, the times are defined within the ranges of [700-900] sec for time t1 and [1100-1400] sec for time t2. Preferably, time t1 was defined at 750 sec and time t2 was defined at 1400 sec. More precisely, the results shown in the Figures were obtained with t1=750 sec and t2=1400 sec. These parameters were selected in accordance with the method for the optimal choice or verification of these parameters, explained in this description. […] The range for time t2 was defined in combination with the results obtained at time t1.
As we did for the implementation of a viscoelastic method, we carried out turbidimetry tests where a hemophilia-A patient from each group is overloaded with different concentrations of therapeutic molecules of interest.
We wanted to test this type of molecule (below and FIG. 24) at concentrations of 0, 3, 15, and 30 μg/mL (Nougier et al. 2020) compared to the reference FVIII treatment (Advate®) at 0, 2, 20, and 100%. […]

The conditions of series [3]: at 15 mg/kg; cited from earlier work.
Series [4] concerns inhibitor (antibodies directed against FIX). The experiment in a line: Residual titer of FIX after neutralization by the inhibitor in hemophilia-B plasma. The class given is biochemical, human. The note with it: 40% Rixubis®, 30 minutes of incubation at 37° C. An excerpt: For certain hemophilia patients, the presence of inhibitors justifies the use of emicizumab.

The values that follow come from patent publication US20250138031A1, “IN VITRO MEASUREMENT OF THE LYSIS OF A FIBRIN CLOT” (DIAGNOSTICA STAGO, priority 2021, published 2025).

Entries after “also recorded” stand apart in the source; their conditions may differ.

With `O=C(OCCO)c1cc(O)c(O)c(O)c1` [GEG, ethylene glycol gallate], the “maximum deviation for parameters DOD t1, DOD t2 and TL compared to the reference method with FXIa” value in series [1] (group 1) is −9%; in series [1] (group 2), “+3%”; in series [1] (group 3) it was “+8%”.
`NC[C@H]1CC[C@H](C(=O)O)CC1` [tranexamic acid]: in series [2] (TXA (1 μg/mL, FIG. 7) in addition to maintenance therapy / missing factor FVIII, listed as TXA), the “lysis kinetics of a fibrin clot” value is given as “becomes slower; also recorded: reducing lysis”. Further, the “classification group after treatment adjustment” value in series [2] (group 3 patients (shortened lysis time), TXA added, FIG. 7) is given as “move these patients into group 2”. Moreover, the “DOD (delta optical density) at time t2 compared with DOD at time t1” value in series [2] (plasma concentration of 5 μg/mL of tranexamic acid in the sample) was “identical”. The plasma concentration in series [3] was 2000 ng/mL.
On to “FXIII: Factor XIII or Catridecacog (NovoThirteen® NovoNordisk), activated by thrombin, stabilizes the clot”, for which, in series [2] (FXIII (NovoThirteen®) mainly in combination with FVIII, patients in the three groups), the “DOD t2 parameter” value was “increases”. Moreover, in series [2] (FXIII in combination with FVIII, patients from the three groups), the resistance to lysis result is on record as “increases the resistance to lysis”. Also, the “change of classification group” value in series [2] (hemophilia-A patient in group 3, 20% FVIII and 170% FXIII:Ag) is recorded as “moves from group 3 to group 2”.
Consider “Rixubis®: FIX molecule (Takeda) used as replacement molecule for hemophilia B”, for which the figures for the “residual titer of FIX after neutralization” value in series [4] (patient B14) and in series [4] (patient B15) were 1% and 21%, respectively.

B1: emicizumab: commercial bispecific antibody mimicking FVIII by forming a complex with activated Factor IX and Factor X (antibody, chains of the INN, looked up, V domains shown)
VH: QVQLVQSGSELKKPGASVKVSCKASGYTFTDNNMDWVRQAPGQGLEWMGDINTRSGGSIYNEEFQDRVIMTVDKSTDTAYMELSSLRSEDTATYHCARRKSYGYYLDEWGEGTLVTVSS
VL: DIQMTQSPSSLSASVGDRVTITCKASRNIERQLAWYQQKPGQAPELLIYQASRKESGVPDRFSGSRYGTDFTLTISSLQPEDIATYYCQQYSDPPLTFGGGTKVEIK
VH2: QVQLVESGGGLVQPGGSLRLSCAASGFTFSYYDIQWVRQAPGKGLEWVSSISPSGQSTYYRREVKGRFTISRDNSKNTLYLQMNSLRAEDTAVYYCARRTGREYGGGWYFDYWGQGTLVTVSS
VL2: DIQMTQSPSSLSASVGDRVTITCKASRNIERQLAWYQQKPGQAPELLIYQASRKESGVPDRFSGSRYGTDFTLTISSLQPEDIATYYCQQYSDPPLTFGGGTKVEIK
For B1, the “classification of patient in group 2 versus group 3” value in series [2] (at 3 μg/mL emicizumab) is reported as “overlap in classification”. Also, the “change in the group of overloaded hemophiliacs” value in series [2] (emicizumab overload 0, 3, 15, 30 μg/mL) was “No change”. Moreover, the “change to DOD t1” value in series [2] (emicizumab overload 0, 3, 15, 30 μg/mL, regardless of the patient groups) is given as “little change”. For the same molecule, in series [2] (groups 1 and 2, up to 15 μg/mL of emicizumab), the “DOD t2” value is recorded as “increased”. The “change in parameters DOD t1 and DOD t2” value in series [2] (patient in group 3, emicizumab overload) was “little change in parameters”. Moreover, in series [2] (patients in groups 1 and 2, emicizumab overload), the resistance to lysis entry is listed as “increasing the resistance to lysis”.
